The target in data set [1] is T1, M5 (Homo sapiens, UniProt P08912).
T1 sequence (P08912 1-532): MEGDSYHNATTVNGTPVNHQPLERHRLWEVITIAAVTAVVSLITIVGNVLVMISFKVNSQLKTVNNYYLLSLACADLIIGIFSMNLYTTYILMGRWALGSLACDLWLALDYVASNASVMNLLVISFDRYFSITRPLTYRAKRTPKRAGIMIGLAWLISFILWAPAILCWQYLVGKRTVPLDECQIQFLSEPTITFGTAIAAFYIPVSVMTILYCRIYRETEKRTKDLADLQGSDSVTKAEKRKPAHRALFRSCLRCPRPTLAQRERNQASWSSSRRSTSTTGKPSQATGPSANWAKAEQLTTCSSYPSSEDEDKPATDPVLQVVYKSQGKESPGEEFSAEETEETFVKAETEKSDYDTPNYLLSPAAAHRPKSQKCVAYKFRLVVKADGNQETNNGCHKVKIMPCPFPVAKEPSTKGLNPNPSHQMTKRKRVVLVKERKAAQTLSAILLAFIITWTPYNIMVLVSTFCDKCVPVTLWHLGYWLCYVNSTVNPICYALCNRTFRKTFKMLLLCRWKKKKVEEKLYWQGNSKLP
In words: In vitro radioligand binding assay, M5. To be noted: read-out: Ki, M5.

Data set [2] concerns the target M2 (Homo sapiens, UniProt P08172). In words: In vitro radioligand binding assay, M2.
Data set [3] concerns the target hERG channel (Homo sapiens, UniProt Q12809). In words: hERG channel current in stably transfected HEK293 cells. As to the method: Studies were conducted to determine effects on IKr, the rapidly activating delayed rectifier cardiac potassium current in the human heart. […] In this assay system, HERG channel current serves as a surrogate for IKr.
(In general: Block of hERG is tested as a sign of cardiac risk.)

Data set [4] relates to Beagle dogs. In words: Cardiovascular safety study in conscious telemetered dogs. The format is in vivo. To be noted: single oral doses 0.5, 1.5 and 5 mg/kg. As to the method:
There were four animals/compound and each animal within the treatment group was exposed to the three doses (plus a empty capsule control), in a dose ramp-up manner with a minimum of 72 hours between doses.

The target in data set [5] is D1 (Homo sapiens, UniProt P21728). In words: In vitro radioligand binding assay, D1.
Sequence of D1 (P21728 whole entry): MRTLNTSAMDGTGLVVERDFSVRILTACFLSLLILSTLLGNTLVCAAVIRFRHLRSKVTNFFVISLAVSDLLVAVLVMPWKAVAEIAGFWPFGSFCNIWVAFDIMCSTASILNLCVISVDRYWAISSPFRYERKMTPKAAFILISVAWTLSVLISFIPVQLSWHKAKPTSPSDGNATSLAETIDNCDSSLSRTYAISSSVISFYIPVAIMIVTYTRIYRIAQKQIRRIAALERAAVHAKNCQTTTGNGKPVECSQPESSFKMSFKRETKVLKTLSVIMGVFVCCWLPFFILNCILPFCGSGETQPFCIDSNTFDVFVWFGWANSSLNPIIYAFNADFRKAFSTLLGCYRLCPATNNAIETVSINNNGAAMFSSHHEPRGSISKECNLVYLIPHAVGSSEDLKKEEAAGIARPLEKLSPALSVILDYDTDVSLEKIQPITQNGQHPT
The test system of data set [6] is Long-Evans derived rats. In words: Porsolt forced swim test. The format is in vivo, rat. Particulars: for Mean Immobility Time (% of Total) ± SEM, Day 2 Study: 3 administrations. As for the experimental part:
Performance in the Porsolt forced swim test was evaluated for sertraline and Compound P following protocols outlined in Porsolt R. D., et al., Arch. Int. Pharmacodyn., 229: 327 ([…]).
The Porsolt forced swim test is a model of “behavioral despair”, which has been used as an in vivo model for assessing potential antidepressant-like activity. Both test articles were dissolved in physiological saline (vehicle) and administered intraperitoneally. […] Long-Evans derived rats were used.

Data set [7] has as its target T2, 5-HT1A (Homo sapiens, UniProt P08908).
T2 sequence (P08908 1-422): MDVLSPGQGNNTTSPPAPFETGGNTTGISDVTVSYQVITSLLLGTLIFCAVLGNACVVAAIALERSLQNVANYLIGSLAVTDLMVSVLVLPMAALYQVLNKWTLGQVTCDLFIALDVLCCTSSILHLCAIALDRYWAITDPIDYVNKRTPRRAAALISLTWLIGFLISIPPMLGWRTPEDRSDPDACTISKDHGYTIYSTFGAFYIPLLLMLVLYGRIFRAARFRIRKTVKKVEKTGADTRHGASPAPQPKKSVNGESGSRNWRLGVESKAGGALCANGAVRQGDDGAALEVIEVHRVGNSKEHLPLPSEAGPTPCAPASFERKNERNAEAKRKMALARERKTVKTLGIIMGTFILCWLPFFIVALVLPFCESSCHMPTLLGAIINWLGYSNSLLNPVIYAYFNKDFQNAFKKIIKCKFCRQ
In words: In vitro radioligand binding assay, 5-HT1A.

For data set [8], the target named is 5-HT1B (Homo sapiens, UniProt P28222). In words: In vitro radioligand binding assay, 5-HT1B.
Sequence of 5-HT1B (P28222 whole entry, species assumed): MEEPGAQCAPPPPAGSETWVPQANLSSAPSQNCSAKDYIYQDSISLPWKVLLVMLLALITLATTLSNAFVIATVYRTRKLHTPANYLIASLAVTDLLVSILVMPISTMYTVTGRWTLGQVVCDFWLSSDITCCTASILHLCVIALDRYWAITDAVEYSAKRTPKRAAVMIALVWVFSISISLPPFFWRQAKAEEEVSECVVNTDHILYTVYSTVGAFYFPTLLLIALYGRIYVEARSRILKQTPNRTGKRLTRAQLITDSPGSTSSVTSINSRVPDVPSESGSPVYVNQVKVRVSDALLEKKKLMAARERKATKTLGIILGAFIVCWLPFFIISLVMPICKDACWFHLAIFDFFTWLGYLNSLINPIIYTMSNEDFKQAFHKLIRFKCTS
The target of data set [9] is 5-HT2C (Homo sapiens, UniProt P28335). In words: In vitro radioligand binding assay, 5-HT2C.
Sequence of 5-HT2C (P28335 33-458, species assumed): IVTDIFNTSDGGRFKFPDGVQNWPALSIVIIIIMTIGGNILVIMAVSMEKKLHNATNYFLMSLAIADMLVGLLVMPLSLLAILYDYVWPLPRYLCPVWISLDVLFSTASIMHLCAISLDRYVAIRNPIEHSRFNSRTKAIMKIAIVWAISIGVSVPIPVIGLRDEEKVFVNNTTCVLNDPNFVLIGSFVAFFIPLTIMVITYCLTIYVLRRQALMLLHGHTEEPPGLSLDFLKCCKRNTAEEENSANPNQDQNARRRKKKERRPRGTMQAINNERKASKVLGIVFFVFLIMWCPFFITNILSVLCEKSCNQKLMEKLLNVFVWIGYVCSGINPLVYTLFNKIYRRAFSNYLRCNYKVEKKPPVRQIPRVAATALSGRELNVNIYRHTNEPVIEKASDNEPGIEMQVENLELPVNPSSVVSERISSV
Data set [10] relates to Long-Evans derived rats. In words: Spontaneous locomotor activity study. The format is in vivo, rat. To be noted: mean ± SEM. As to the method: The effects on locomotor activity were studied in Long-Evans derived rats following protocol outlined in Dews P., Br. J. Pharmacol., 8: 46 (1953).
This effect was still evident 2 hours following drug administration. On the basis of these studies, CNS effects and long duration of action may be anticipated at sufficient clinical doses.

Sequence of hERG channel (Q12809 whole entry): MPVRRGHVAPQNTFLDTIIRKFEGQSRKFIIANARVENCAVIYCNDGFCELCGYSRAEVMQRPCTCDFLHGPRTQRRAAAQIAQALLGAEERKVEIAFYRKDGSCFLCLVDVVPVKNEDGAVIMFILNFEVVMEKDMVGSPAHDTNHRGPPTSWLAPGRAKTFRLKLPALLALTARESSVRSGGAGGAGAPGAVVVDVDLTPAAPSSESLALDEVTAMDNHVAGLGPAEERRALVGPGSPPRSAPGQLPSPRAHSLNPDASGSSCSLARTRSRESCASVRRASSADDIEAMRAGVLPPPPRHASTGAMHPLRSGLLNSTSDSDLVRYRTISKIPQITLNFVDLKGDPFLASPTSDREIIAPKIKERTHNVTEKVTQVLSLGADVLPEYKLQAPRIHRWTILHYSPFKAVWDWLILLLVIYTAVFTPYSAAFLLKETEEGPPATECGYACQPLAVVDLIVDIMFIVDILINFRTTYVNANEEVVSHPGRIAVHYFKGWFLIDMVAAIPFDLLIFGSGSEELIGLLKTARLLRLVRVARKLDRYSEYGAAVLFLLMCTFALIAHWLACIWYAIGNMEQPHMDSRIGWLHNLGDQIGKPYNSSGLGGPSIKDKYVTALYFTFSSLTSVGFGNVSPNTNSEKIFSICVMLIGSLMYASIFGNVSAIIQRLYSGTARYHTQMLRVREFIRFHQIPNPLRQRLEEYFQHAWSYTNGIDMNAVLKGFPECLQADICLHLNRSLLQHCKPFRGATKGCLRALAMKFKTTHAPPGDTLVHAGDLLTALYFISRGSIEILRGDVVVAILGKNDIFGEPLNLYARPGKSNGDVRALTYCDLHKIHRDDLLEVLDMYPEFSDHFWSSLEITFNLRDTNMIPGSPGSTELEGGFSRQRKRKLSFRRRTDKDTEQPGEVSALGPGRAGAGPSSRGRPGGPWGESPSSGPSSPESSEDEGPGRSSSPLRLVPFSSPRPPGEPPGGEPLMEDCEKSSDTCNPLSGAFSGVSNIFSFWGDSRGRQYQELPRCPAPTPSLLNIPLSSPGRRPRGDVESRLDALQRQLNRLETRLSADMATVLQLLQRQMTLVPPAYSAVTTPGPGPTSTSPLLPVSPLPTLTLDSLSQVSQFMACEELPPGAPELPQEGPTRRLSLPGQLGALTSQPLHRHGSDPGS
Sequence of M2 (P08172 whole entry): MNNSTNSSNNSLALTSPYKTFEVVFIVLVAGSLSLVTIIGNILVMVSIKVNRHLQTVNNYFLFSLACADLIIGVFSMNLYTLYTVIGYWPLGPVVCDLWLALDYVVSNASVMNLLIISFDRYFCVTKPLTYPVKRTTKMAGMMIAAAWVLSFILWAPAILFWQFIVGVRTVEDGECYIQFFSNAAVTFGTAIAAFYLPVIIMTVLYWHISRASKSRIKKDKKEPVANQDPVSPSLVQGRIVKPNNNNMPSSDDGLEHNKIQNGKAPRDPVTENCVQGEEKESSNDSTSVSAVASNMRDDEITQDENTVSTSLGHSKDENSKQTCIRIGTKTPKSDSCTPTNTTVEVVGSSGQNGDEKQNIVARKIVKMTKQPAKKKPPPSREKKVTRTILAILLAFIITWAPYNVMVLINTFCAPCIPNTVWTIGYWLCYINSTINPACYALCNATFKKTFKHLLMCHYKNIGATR

For orientation: Ki means the equilibrium dissociation constant of an inhibitor or competing ligand from its target. Usually IC50 stands for the concentration that inhibits the measured activity by half. On to `CN[C@H]1CC[C@@H](c2ccc(Cl)c(Cl)c2)c2ccccc21` [Sertraline, (1S,4S)-cis 4-(3,4-dichlorophenyl)-1,2,3,4-tetrahydro-N-methyl-1-napthalenamine, reference compound], for which the Ki in data set [1] is 2000 nM; in data set [2], 3700 nM; in data set [5], 1600 nM; in data set [7] it was 2400 nM; in data set [8], 8500 nM; in data set [9], 5600 nM. Also, in data set [3], 1100 nM corresponded to half-maximal inhibition (IC50). Besides, the “effect on heart rate, blood pressure or ECG parameters (including QTc)” value in [4] is given as “no effect”. Further, the results for the “Mean Immobility Time (% of Total) ± SEM, Day 2 Study” value in [6] (2.5 mg/kg i.p.), in [6] (5.0 mg/kg i.p.) and in data set [6] (10.0 mg/kg i.p.) were 86 ± 3 % of Total, 77 ± 2 % of Total and 72 ± 3 % of Total, respectively. Moreover, the “Mean Immobility Time (% of Total) ± SEM, Day 4 Study” value was 78 ± 3 % of Total in [6] (2.5 mg/kg i.p., 7 administrations) and 64 ± 2 % of Total in data set [6] (5.0 mg/kg i.p., 7 administrations). Besides, in data set [6] (10.0 mg/kg i.p., 7 administrations, error is std dev (N = 2)), the “Mean Immobility Time (% of Total), Day 4 Study” value was 70 ± 4 % of Total. The entries for the “Total Activity Counts, 71–80 Minutes” value in data set [10] (2.5 mg/kg single i.p. dose) and in data set [10] (5.0 mg/kg single i.p. dose) were 34 ± 9 and 32 ± 11, respectively. Further, the results for the “Total Activity Counts, 91–100 Minutes” value in [10] (2.5 mg/kg single i.p. dose) and in data set [10] (5.0 mg/kg single i.p. dose) were 25 ± 9 and 14 ± 9, respectively. Moreover, the figures for the “Total Activity Counts, 111–120 Minutes” value in data set [10] (2.5 mg/kg single i.p. dose) and in data set [10] (5.0 mg/kg single i.p. dose) were 30 ± 10 and 16 ± 11, respectively. The figures for the “Total Activity Counts, Total 1st Hour” value in [10] (2.5 mg/kg single i.p. dose) and in data set [10] (5.0 mg/kg single i.p. dose) were 559 ± 57^2 and 327 ± 55, respectively. Moreover, the “Total Activity Counts, Total 2nd Hour” value in data set [10] (2.5 mg/kg single i.p. dose) was determined as 211 ± 60; in data set [10] (5.0 mg/kg single i.p. dose), 95 ± 41.

(Values after US20070282007A1, “TREATMENT OF PAIN DISORDERS WITH trans 4-(3,4-DICHLOROPHENYL)-1,2,3,4-TETRAHYDRO-1-NAPHTHALENAMINE AND ITS FORMAMIDE” (SEPRACOR INC., priority 2006, published 2007).)
